{"source": "patent US20100003289A1", "about": "“Controlled Release Complex Formulation For Oral Administration of Medicine For Diabetes and Method For The Preparation Thereof” (Hanmi Pharm, Co., Ltd., priority 2004, published 2010)", "test": "Stability of glimepiride in solution as function of pH, Test Example 5", "format": "physicochemical", "parameters": "Rate constant (K): unit not given beside the values", "details": "for Log K / Rate constant (K) / T50% (time taken for 50% disintegration of the drug, 0.693/K): room temperature", "method": "In order to examine the stability of glimepiride in a solution as function of pH changes, only the glimepiride rapid-release portion of the formulation of Example 13 was separated, and dissolved in each of the solutions listed in Table 17. Each of the resulting solutions was kept at room temperature and the glimepiride contents thereof were measured at predetermined times.", "key": {"[1]": {"details": "pH 1.2, 1st solution of disintegrating-test in Korea pharmacopoeia"}, "[2]": {"details": "pH 4.0, British pharmacopoeia buffer solution (1998)"}, "[3]": {"details": "pH 6.8, 2nd solution of disintegrating-test in Korea pharmacopoeia"}, "[4]": {"details": "pH 7.8, phosphate buffer solution (Amaryl release solution)"}}}
{"smiles": "CCC1=C(C)CN(C(=O)NCCc2ccc(S(=O)(=O)NC(=O)N[C@H]3CC[C@H](C)CC3)cc2)C1=O", "note": "[glimepiride]", "values": [{"measurement": "Log K", "setting": "[1]", "result": 0.186}, {"measurement": "Rate constant (K)", "setting": "[1]", "result": 1.534}, {"measurement": "T50% (time taken for 50% disintegration of the drug, 0.693/K)", "setting": "[1]", "result": 0.45}, {"measurement": "Log K", "setting": "[2]", "result": "−0.472"}, {"measurement": "Rate constant (K)", "setting": "[2]", "result": 0.337}, {"measurement": "T50% (time taken for 50% disintegration of the drug, 0.693/K)", "setting": "[2]", "result": 2.06}, {"measurement": "Log K", "setting": "[3]", "result": "−0.900"}, {"measurement": "Rate constant (K)", "setting": "[3]", "result": 0.126}, {"measurement": "T50% (time taken for 50% disintegration of the drug, 0.693/K)", "setting": "[3]", "result": 5.50}, {"measurement": "Log K", "setting": "[4]", "result": "−1.187"}, {"measurement": "Rate constant (K)", "setting": "[4]", "result": 0.065}, {"measurement": "T50% (time taken for 50% disintegration of the drug, 0.693/K)", "setting": "[4]", "result": 10.66}, {"measurement": "Log K", "setting": "pH 10.0, Meglumin 1% solution", "result": "−2.721"}, {"measurement": "Rate constant (K)", "setting": "pH 10.0, Meglumin 1% solution", "result": 0.002}, {"measurement": "T50% (time taken for 50% disintegration of the drug, 0.693/K)", "setting": "pH 10.0, Meglumin 1% solution", "result": 346.50}, {"measurement": "stability of glimepiride as function of the solution pH", "setting": "solution containing meglumin, judged by lowest K value, FIG. 9", "result": "most stable"}]}
